# How the values were obtained:
# [1] = test system: NNK-induced DNA adducts in lung tissues; assay: NNK-induced DNA adducts in A/J mouse lung tissues (LC-ESI-MS/MS); assay type: in vivo, A/J mice; details: 24 h after NNK; for minimum chemopreventive (effective) dose estimated from DNA adduct reduction: dose-response of O^6-mG reduction in lung
# Description: DNA was isolated from the whole lung tissue of each individual mouse following Puregene DNA isolation protocol (Qiagen Corp, Valencia, Calif.) (Urban et al., Chem Res Toxicol 2012; 25:2167-78). 7-pobG, O^2-pobdT, O^6-pobdG, and O^6-mG were quantified by LC-ESI-MS/MS, following established protocols (Urban et al., Chem Res Toxicol 2012; 25:2167-78; Peterson et al., Cancer Res 1991; 51:5557-64).
# After one-week acclimation, A/J mice were weighed and randomized into seven groups (3 mice per group) and switched to the AIN-93 G diet on a date defined as Day 1. Mice in Groups 1 and 2 were given the AIN-93 G diet during Day 1-Day 7. Mice in Groups 3-7 were given the AIN-93 G diet supplemented with desmethoxyyangonin, (+)-DHK, (+)-kavain, (+)-DHM, or (+)-methysticin respectively, at a dose of 1 mg/g of diet during Day 1-Day 7. Mice in Groups 2-7 were given a single dose of NNK at 100 mg/kg bodyweight in saline (0.1 ml) via intraperitoneal (i.p.) injection at the beginning of Day 7 while mice in Group 1 were given saline (0.1 ml). Mice were euthanized by CO2 overdosing 24 h after NNK treatment, and lung tissues were collected and stored at −80° C. until DNA isolation. A number of NNK-induced DNA modifications (O^6-mG, 7-pobG, O^6-pobdG and O^2-pobdT) were quantified by following a reported procedure (Leitzman, P et al. (2014) Cancer. Prev. Res., 7: 86-96).
# After one-week acclimation, A/J mice were weighed and randomized into ten groups (3 mice per group except for Group 1 that had one mouse as the negative control) and switched to the AIN-93 G diet on a date defined as Day 1. Mice in Groups 1 and 2 were given the AIN-93 G diet during Day 1-Day 7. Mice in Groups 3-10 were given the AIN-93 G diets supplemented with kava, (+)-DHK, (+)-DHM, and synthetic (±)-DHM respectively at the specified dose during Day 1-Day 7. Mice in Groups 2-10 were given a single dose of NNK at 100 mg/kg bodyweight in saline (0.1 ml) via i.p. injection at the beginning of Day 7 while the mouse in Group 1 was given saline (0.1 ml). Mice were euthanized by CO2 overdosing 24 h after NNK treatment, and lung and liver tissues were collected and stored at −80° C. until DNA isolation. A set of NNK-induced DNA adducts (O^6-mG, 7-mG, 7-pobG, O^6-pobdG, O^2-pobdT, 7-phbG, O^6-phbdG and O^2-phbdT) were quantified by following reported procedures (Leitzman, P et al. (2014) Cancer. Prev. Res., 7: 86-96; Peterson, L A et al. (2013) Chem. Res. Toxicol. 26: 1464-1473; Upadhyaya, P et al. (2008) Chem. Res. Toxicol. 21: 1468-1476). For 7-mG isolation, DNA (30 μg) was dissolved in 10 mM sodium phosphate buffer, pH 7 (500 μL) and spiked with [^13C1^2H3]7-mG (10 pmol). Samples were heated to 80° C. for 30 minutes. An aliquot (100 μL) was removed for 7-mG analysis.
# [2] = A/J mouse safety upon 17-week continuous exposure of (+)-DHM; assay type: in vivo, A/J mice; details: for adverse effects: 0.5 mg/g of diet (at least 10x minimum effective dose)
# Description: After one-week acclimation, A/J mice were weighed and randomized into two groups (five mice in the control group and ten mice in (+)-DHM treatment group). Mice in the control group were maintained on the AIN-93 G diet for three weeks and then switched to the AIN-93 M diet until the end of Week 17. Mice in (+)-DHM treatment group were maintained on the same diet as the control group with supplementation of (+)-DHM at a dose of 0.5 mg/g of diet. Food was replenished twice weekly. Food intake was monitored twice a week and mouse bodyweight was monitored once a week. At the end of Week 8, serum samples from each mouse were prepared from blood collected via a facial vein and analyzed for a panel of clinical chemistry analytes. At the end of Week 17, mice were euthanized by CO2 overdosing. Blood was collected with one portion analyzed for hematology and the other portion processed for serum and analyzed for a full panel of clinical chemistry analytes. Individual animal body weights and major organ weights (lung, liver, heart, spleen and kidney) were recorded. Lung, liver, heart, spleen, kidney and pancreas were fixed in 10% neutral-buffered formalin solution.
# [3] = 1, 0.25, 0.1 and 0.01 mg/g of diet
# [4] = kava 5 and 1.25 mg/g, (+)-DHM 1, 0.25, 0.1 and 0.01 mg/g of diet
# [5] = 0.5 mg/g of diet, Week 17, data not shown
Compound,effect on O^6-mG ([1]; 0.01 mg/g of diet),extent of reduction in O^6-mG ([1]; 0.1 mg/g of diet),"effect on 7-mG [1, 3]","effect on PHB adducts (7-phbG, O^6-phbdG, O^2-phbdT) [1, 3]",minimum chemopreventive (effective) dose estimated from DNA adduct reduction [1],effect on NNK-induced O^6-mG ([1]; isolated kavalactones 1 mg/g of diet Day 1-Day 7),"effect on O^6-mG, dose-response [1, 4]","effect on POB adducts, dose-response [1, 4]",adverse effects ([2]; 17 weeks),"food intake vs control ([2]; 0.5 mg/g of diet, 17 weeks)","weekly bodyweight vs control ([2]; 0.5 mg/g of diet, 17 weeks)","full-panel hematology vs control ([2]; 0.5 mg/g of diet, Week 17)","histopathological examination of liver, lung, heart, kidney, spleen and pancreas vs control [2, 5]","serum osmolality and anion gap vs control [2, 5]","final bodyweight and relative weights of five organs vs control ([2]; 0.5 mg/g of diet, Week 17, except for the lung tissues)","relative lung weight vs control ([2]; 0.5 mg/g of diet, Week 17, excluding one control mouse with lung hemorrhage (p=0.10))","serum clinical chemistry (ALP, ALT, AST, BUN, albumin, total bilirubin, CK, glucose, cholesterol, amylase) vs control ([2]; 0.5 mg/g of diet, end of Week 8)","serum clinical chemistry vs control ([2]; 0.5 mg/g of diet, end of Week 17)"
"COC1=CC(=O)O[C@@H](CCc2ccc3c(c2)OCO3)C1 [(+)-DHM, (+)-dihydromethysticin]",no effect,comparable to that induced by kava at a dose of 1.25 mg/g of diet,dose-dependently reduced,dose-dependently reduced,0.01-0.1 mg/g of diet,significantly reduced,preferentially and dose-dependently reduced,weaker effects,did not present with any adverse effects,similar,none of the differences were statistically significant,None of these parameters were significantly different,no significant differences,no differences,not significantly different,no significant differences,No significant differences,no significant differences
"COC1=CC(=O)O[C@@H](CCc2ccc3c(c2)OCO3)C1 [DHM, dihydromethysticin]",–,–,–,–,0.01-0.1 mg/g of diet,–,–,–,no adverse effects,–,–,–,–,–,–,–,–,–

# Source: patent US10918687B2, “Kava derived therapeutic compounds and methods of use thereof” (KUALITY HERBCEUTICS LLC, priority 2013, dated 2021)
